The term IC50 denotes the concentration that gives 50% inhibition.

One series deals with PAF-induced hypotension. Kind of series: Inhibition of PAF-induced hypotension. Type of series: in vivo, Wistar-Imamichi rats. To be noted: Rattus norvegicus, iv, 1 min; anesthetized rats; l-C16:0 PAF 10 ng/kg i.v.; test compound i.v. cumulatively, 1 min before PAF; read-out: Inhibitory effect ID50. How it is done: Inhibition of PAF-induced hypotension
The test animals used were Wistar-Imamichi rats, each weighing from 350 to 450 g, anesthetized with Inactin (90 mg/kd, intraperitoneally).
Blood pressure was continuously measured throughout the experiment through a cannula inserted into the femoral artery. Each drug sample to be tested was intravenously injected through a cannula inserted into the femoral vein.
At first, l-C16:0 PAF was injected intravenously in amounts of 10 ng/kg at each injection at intervals of 5 minutes until the degree of the hypotensive response became constant. Then, each drug sample to be treated was intravenously injected. After one minute, the same dose of PAF was administered again. The drug sample was cumulatively administered. From its inhibition rate against the PAF-induced hypotensive effect, the 50% inhibitive dose (ID50) was determined, and is regarded as an index of PAF-antagonist activity. For administration, the PAF was dissolved in physiological saline solution containing 0.25% w/v of bovine serum albumin (BSA). The compounds under test were dissolved in dimethylformamide for use.
CV-3988 is disclosed in U.S. Pat. No. 4,408,052, and is structurally related to PAF itself.
In this Table, the compounds of the invention are identified by the number of the foregoing Example in which they were prepared.

The test system of series [1] is blood platelet (PAF-induced aggregation). The experiment in a line: Inhibitory effect in vitro against PAF-induced blood platelet aggregation. The series is classed as cell-based. To be noted: Oryctolagus cuniculus, 5 min; rabbit platelet rich plasma; l-C16:0 PAF final 10^-8 ~3×10^-8 M; 5 min observation. As to the method: Inhibitory effect in vitro against PAF-induced blood platelet aggregation
Blood samples were drawn from a rabbit and one part by volume of each sample was immediately mixed with 1/9 part of a 3.8% w/v aqueous solution of sodium citrate. The samples were centrifuged at 150×G at room temperature for 15 minutes to obtain a platelet rich plasma (PRP) fraction from the upper layer. The remains were further centrifuged at 1,000×G for 15 minutes to obtain a platelet poor plasma (PPP) fraction from the upper layer. The PRP and PPP fractions were mixed appropriately, to obtain a sample in which the final count of blood platelets was adjusted to be 6×10^5 per ul. According to the method reported by Born et al. [G. V. R. Born et al.: J. Physiol. 62, 67-68 (1962)], blood platelet aggregation was determined by an increase in light transmission measured using an aggregometer. 3 ul of a solution of the test compound in dimethyl sulfoxide were added to 272 ul of PRP, and, after 1 minute, 25 ul of a physiological saline solution containing l-c16:0 PAF (at a final concentration of 10^-8 ~3×10^-8 M) were added. […] At the end of this value and the value of PAF-induced aggregation which was observed when dimethyl sulfoxide only was used without the addition of any test compound. IC50 values were calculated from the dose-response curve.

In the next series the target is T1, PAF-receptor (Oryctolagus cuniculus, UniProt G1TEI7).
T1 construct: is regarded as a PAF-receptor membrane fraction; from tissue; host or cells: rabbit blood platelets (membrane fraction from sucrose density layers)
The experiment in a line: Inhibitor effect on PAF-receptor binding. To be noted: specific binding of ^3H-PAF; rabbit platelet PAF-receptor membrane fraction; read-out: Inhibition of receptor binding (IC50 M). From the text: Inhibitor effect on PAF-receptor binding
Blood samples were drawn from the heart of a rabbit. 1 part by volume of each sample was mixed immediately with 1/9 part of 0.77M solution of disodium ethylenediaminetetraacetate. After a similar procedure to that described in Experiment 2, a precipitated blood platelet sample was obtained. This blood platelet sample was washed, and, after repeated freezing and thawing for cellular breakdown, it was laid on top of double layers consisting of […] and 1.5M sucrose solutions. By centrifugation at 63,500×G, for 2 hours at 4° C., the fraction obtained from the interface between the 0.25M and 1.5M sucrose solutions was collected and is regarded as a PAF-receptor membrane fraction. A receptor binding experiment was conducted according to a method very similar to that reported by Hwang et al. [San-Bao Hwang et al.: J. Biol. Chem. 260, 15639-15645 (1985)]. The specific binding of ^3 H-PAF was measured using a Wattman GF/C filter. A test compound was dissolved in dimethyl sulfoxide and diluted 100 fold with a buffer solution containing 0.5% bovine serum albumin. Nine parts by weight of the solution, for a receptor binding experiment, was mixed with one part of the test compound solution prepared above. The percent inhibition of the specific binding was plotted for a log concentration of the test compound, and the 50% inhibitory concentration (IC50) was calculated from the linear line connecting all the plotted points.

The nature of another series: Acute toxicity. Type of series: in vivo. To be noted: oral, 300 mg/kg, 3 male ddy mice (5 weeks old), observed one week. As to the method: Each of the compounds prepared as described in Examples 2, 7 and 15 was separately administered orally in a dose of 300 mg/kg to each of a group of 3 male ddy mice (5 weeks old).

SMILES strings stand for the structures.

T1 sequence (G1TEI7 1-342): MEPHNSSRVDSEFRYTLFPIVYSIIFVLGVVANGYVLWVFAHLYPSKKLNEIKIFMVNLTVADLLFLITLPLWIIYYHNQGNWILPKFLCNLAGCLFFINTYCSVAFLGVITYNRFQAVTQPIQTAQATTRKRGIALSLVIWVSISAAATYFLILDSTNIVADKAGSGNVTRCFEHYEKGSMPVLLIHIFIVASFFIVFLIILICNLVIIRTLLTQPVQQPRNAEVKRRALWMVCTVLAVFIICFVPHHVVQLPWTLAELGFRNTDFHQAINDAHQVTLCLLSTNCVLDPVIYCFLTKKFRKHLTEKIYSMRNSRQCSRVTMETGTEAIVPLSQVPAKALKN

For `COc1ccc(/C(=C/C(=O)N2CCN(C(=O)c3cc(OC)c(OC)c(OC)c3)CC2)c2ccc(Cl)cc2)cc1OC` [Example 15, 1-[(E)-3-(4-Chlorophenyl)-3-(3,4-dimethoxyphenyl)acryloyl]-4-(3,4,5-trimethoxybenzoyl)piperazine], the ED50 with PAF-induced hypotension came to 0.022 mg/kg. The IC50 in series [1] came to 68 nM; at PAF-receptor it was 43 nM. Moreover, the “Acute toxicity (survival)” value in “Acute toxicity” is reported as “all mice survived”.
For the compound `COc1ccc(C(=CC(=O)N2CCN(C(=O)c3cc(OC)c(OC)c(OC)c3)CC2)c2ccc(OC)cc2)cc1` [Example 2, 1-[3,3-Bis(4-methoxyphenyl)acryloyl]-4-(3,4,5-trimethoxybenzoyl)piperazine], the ED50 with PAF-induced hypotension was 0.039 mg/kg. The compound also showed an IC50 in series [1] of 200 nM. Moreover, the “Acute toxicity (survival)” value in the series “Acute toxicity” is listed as “all mice survived”.
With `COc1ccc(/C(=C/C(=O)N2CCN(C(=O)c3cc(OC)c(OC)c(OC)c3)CC2)c2cccc(Cl)c2)cc1` [Example 45, 1-[(Z)-3-(3-Chlorophenyl)-3-(4-methoxyphenyl)acryloyl]-4-(3,4,5-trimethoxybenzoyl)piperazine], the ED50 in the series on PAF-induced hypotension was 0.0066 mg/kg. Moreover, the results for the IC50 (in series [1]; at PAF-receptor) were 39 nM and 16 nM, respectively.
The corresponding values for `COc1cc(C(=O)N2CCN(C(=O)/C=C(/c3ccccc3)c3cccs3)CC2)cc(OC)c1OC` [Example 5, 1-[(Z)-3-Phenyl-3-(2-thienyl)acryloyl]-4-(3,4,5-trimethoxybenzoyl)piperazin] are 0.054 mg/kg, 260 nM and 47 nM.
In the case of `COc1ccc(/C(=C/C(=O)N2CCN(C(=O)c3cc(OC)c(OC)c(OC)c3)CC2)c2ccccc2)cc1OC` [Example 7, 1-[(E)-3-(3,4-Dimethoxyphenyl)cinnamoyl]-4-(3,4,5-trimethoxybenzoyl)piperazine], in the series with PAF-induced hypotension, the ED50 stood at 0.014 mg/kg. In addition, the “Acute toxicity (survival)” value in the series “Acute toxicity” was “all mice survived”.
Consider `COc1cc(C(=O)N2CCN(C(=O)C=C(c3ccccc3)c3ccccc3)CC2)cc(OC)c1OC` [Example 1, 1-(3,3-Diphenylacryloyl)-4-(3,4,5-trimethoxybenzoyl)piperazine], for which, in the series on PAF-induced hypotension, the ED50 was determined as 0.057 mg/kg. Besides, the IC50 in series [1] was determined as 320 nM; at PAF-receptor, 47 nM.
Taken in the same sequence, the figures for `COc1ccc(/C(=C/C(=O)N2CCN(C(=O)c3cc(OC)c(OC)c(OC)c3)CC2)c2cc(F)cc(F)c2)cc1` [Example 87, 1-[(Z)-3-(4-Methoxyphenyl)-3-(3,5-difluorophenyl)acryloyl]-4-(3,4,5-trimethoxybenzoyl)piperazine] were 0.011 mg/kg, 65 nM and 76 nM.

Source of the values: patent US5192766A, “N-acryloylpiperazine derivatives, their preparation and their use as PAF antagonists” (Sankyo Company, Limited, priority 1989, dated 1993).
